Columns and labels:
[1] = test system: hemorrhagic stroke induced by caudate nucleus collagenase VII injection in rats; assay: Acute phase of hemorrhagic stroke induced by caudate nucleus collagenase VII injection, short-term neurological deficit score; format: in vivo; details: for mNSS score / Garcia score: 24 h after hemorrhagic stroke modeling; for mNSS score: scale 0-18, higher worse; for Garcia score: scale 3-18, lower worse
Protocol: after 2 h of hemorrhagic stroke, Zea Longa Score was used to determine whether the modeling was successful, and rats with successful modeling were taken and randomly grouped to be administered.
The rats were randomly divided into a sham operation group (Sham group, given a blank emulsion with a volume equal to that of the high-dose CTMB group), a model group (Vehicle group, given a blank emulsion with a volume equal to that of the high-dose CTMB group), a low-dose CTMB group (CTMB-L group, 10 mg/kg), a high-dose CTMB group (CTMB-H group, 20 mg/kg), and an edaravone dexborneol injection concentrated solution group (EDB group, commercially available, 3 mg/kg). Each group included 10-13 rats, which were administered by intraperitoneal injection. It should be noted that in the experiment, the mode of administration for rats was intraperitoneal injection, and a ratio of the effective dose of CTMB, the active ingredient in the emulsion injection, to the unit mass of the human body was within a range of 0.2 mg-4.0 mg/kg, which referred to the ratio of the effective dose of CTMB, the active ingredient in the emulsion injection, to the unit mass of the human body during intravenous infusion, which was extrapolated from effective dose of the rats. Considering the different bioavailability, peak concentration, and peak time of the drug due to different species and different modes of administration, the ration of the effective dose of the active ingredient CTMB in the emulsion injection to unit mass of human body was finally determined to be 0.2 mg-4.0 mg/kg through conversion.
The rats were fasted and dehydrated for 8 h before the procedure, and anesthesia was induced using 4% isoflurane, and 2% isoflurane was given to maintain anesthesia, and the rats were maintained at a temperature of about 37° C. The rats were fixed at the prone position on the stereotaxic apparatus, the head was prepared for skinning, and a longitudinal incision was made in the median sagittal shape of the head to incise the skin and subcutaneous tissues, exposing the anterior chimney and coronal suture. The stereotaxic apparatus was used to locate the right caudate nucleus of the rat with the fontanel as the origin and the right paracentral opening of the midline of 3.0 mm, marked and then holes were punched with the cranial bone drill, the dura was exposed, and the hemorrhage was stopped adequately. The micro-syringe was pre-mounted on the stereotaxic apparatus, and the needle was vertically injected 5.5 mm along the cranial borehole (i.e., the caudate nucleus site). Collagenase VII (1 μL) at a concentration of 0.5 U/μL was injected slowly and uniformly into the brain for 5 min, the needle was stopped for 8 min, and the syringe was slowly pushed out. The cranial defect was closed using sterile bone wax and the scalp incision was sutured. After disinfecting the treatment with iodophor, the rats were returned to the cage. The sham operation group (Sham group) remained unchanged except for the insertion of a needle for saline injection. After awaking from anesthesia, the rats were fed normally. […]
The neural function of the rats was comprehensively evaluated after 24 h of modeling using the modified mNSS score and Garcia score, and mNSS scoring criteria was shown in Table 3 and Garcia scoring criteria was shown in Table 4. […]

[2] = test system: Parkinson's disease (PD) mice, 6-OHDA method; assay: 6-OHDA Parkinson's disease mice, rod-climbing experiment; format: in vivo, C57 mice; details: Group D, CTMB 20 mg/kg ip
Protocol: The mice were randomly divided into a sham operation group (group S, given a blank emulsion with a volume equal to that of the administered group), a model group (group M, given a blank emulsion with a volume equal to that of the administered group), a CTMB group (20 mg/kg, group D), and a levodopa group (levodopa: benserazide hydrochloride=4:1, 12 mg/kg, group L), each group included 10-12 mice, and all of them were administered intraperitoneally.
Preoperatively, mice were fasted for 12 h, and mice were anesthetized with 4% isoflurane induction and maintained with 1.5% isoflurane. The mice were subsequently immobilized on a brain stereotaxic apparatus. The bregma and lambda points were exposed by gently wiping the cranial surface with a cotton swab after cutting the scalp. The stereotaxic apparatus was adjusted to align the heights of the bregma and lambda points, thereby leveling the skull. The bregma point was designated as the origin, the coordinates where the injection site was located were located, and the drill was used to drill a small hole in the skull above the injection site.
6-OHDA (12.5 μg/μL) was injected into the striatum region (AP+0.5 mm; ML+2.00 mm; DV-3.00 mm and-2.00 mm) of the mice, and 1 μL 6-OHDA was injected into each of the two points at a rate of 0.5 μL/min. The needle was left in place for 3 min after the injection was completed, and then the injection needle was lifted, and the scalp of the mice was sutured and disinfected. The sham operation group was injected with an equal volume of saline containing 0.02% ascorbic acid, and other operations were performed as above. After the procedure, the mice were placed in the cage at an appropriate temperature. After awakening from anesthesia, the mice were kept normally.
The rod-climbing experiment: the rod-climbing experiment was mainly used to test the limb movement ability of mice and to assess the symptoms of motor delay. This experiment evaluated the ability of mice to grasp and maneuver on a pole to descend to their home cage. A cork ball was fixed to an iron pole with a diameter of 1 cm and a length of 65 cm. The head of the mice was put down on the top of the pole, and the mice usually naturally descended down along the pole to return to their cage. The time for the mice to descend to the bottom was recorded. Results were averaged over 3 consecutive measurements.
The motor function of the mice was comprehensively assessed using the rod-climbing experiment and the hanging experiment at 1, 2, 3, and 4 weeks after drug administration.

TNF-α = TNF-α in cerebral cortex of TBI rats; format: in vivo, SD rats; details: 30 mg/kg ip 2 h after TBI; 24 h after administration; FIG. 3
Protocol: The experimental grouping and drug administration plan were as follows. • Sham operation group (Group P): saline was given with the same volume as in the CTMB group; • Model group (T group): a blank emulsion was given with the same volume as in the CTMB group; • Medium dose group (Group M): a dose of 30 mg/kg of CTMB emulsion injection was given.
The experimental grouping and drug administration plan were the same as the test 3. After 2 h of the TBI modeling, different groups of rats were administered intraperitoneally. After 24 h of the administration, the rats were deeply anesthetized, the head was severed and the brain was removed, about 60-120 mg of hemisphere cortex was taken out from the hemisphere on the blood side, 10 times the volume of ice-cold centrifugal buffer used for biochemical assays was added, homogenization was carried out in an ice bath for 10 min, and centrifugation was carried out at 4° C. and 14000 rpm/min for 30 min. The supernatant was extracted, and inflammatory factors IL-1, IL-6, and TNF-α were tested according to the instructions of IL-1, IL-6, and TNF-α assay kits, respectively.

COc1cc(OC)c(OC)cc1C=C1CCC1 [CTMB, 1-(cyclobutylidenemethyl)-2,4,5-trimethoxybenzene]
toxic side effects associated with administration ([1]; 10 and 20 mg/kg ip, hemorrhagic stroke rats): No toxic side effects
mNSS score ([1]; CTMB-H 20 mg/kg ip): 5.97 ± 1.68^####, *
Garcia score ([1]; CTMB-H 20 mg/kg ip): 10.45 ± 2.49^####, *
mNSS score ([1]; CTMB-L 10 mg/kg ip): 4.54 ± 1.81^###, ****
Garcia score ([1]; CTMB-L 10 mg/kg ip): 12.45 ± 1.89^####, ****
Rod-climbing time, 1 week of administration [2]: 6.38 ± 1.22 s
Rod-climbing time, 2 weeks of administration [2]: 6.41 ± 1.12 s
Rod-climbing time, 3 weeks of administration [2]: 5.50 ± 1.02^#, * s
Rod-climbing time, 4 weeks of administration [2]: 5.28 ± 0.92^#, * s
Rod-climbing time, Before administration ([2]; baseline 2 weeks after 6-OHDA): 9.29 ± 1.92 s
content of TNF-α in cerebral cortex tissue (TNF-α): significantly reduced
